Data on four compounds can be found in patent publication US20040101915A1, “Diagnosis and treatment of chemoresistant tumors” (IRM LLC, a Delaware Limited Liability Company, priority 2002, published 2004).

Assay [1] concerns K422 cells. The assay can be described thus: Western blot analysis of caspase processing in treated FL cells. It is filed as cell-based, human. The conditions noted are these: 100 nM; for processing of caspase-8: DOHH2, K422 and RL-7; for caspase processing of the caspases-2, -3, -7 and -9: K422 versus DOHH2 and RL-7. From the text: Western blot analysis was used to evaluate protein expression.

Assay [2] concerns K422 cells. The assay is described as follows: MTT cytotoxicity assay, K422 cells. The conditions noted are these: for difference in IC50 concentrations in K422 cells compared to the other cell lines tested: 24 hours, MTT, other lines DOHH2, Jurkat, Jurkat bcl-2, RL-7. It counts as cell-based, human. The procedure: An MTT cytotoxicity assay was used to determine the number of viable cells following treatment with various apoptotic stimuli. Cells (100 μl of a 8×10^5 cells/ml suspension) were added to each well of a 96 well plate and incubated with etoposide or doxorubicin for 24-72 h. MTT dye solution was then added for 4 h, the blue crystal product was solubilized over night at 37° C. and absorbance was measured at 570 nm. Because the MTT assay also measures growth arrest, the MTT results were verified with caspase activity assays.
(Tetrazolium assays rely on reduction of a dye to a coloured formazan, in cell work by metabolically active cells.)

Assay [3] deals with K422 cells. The assay is described as follows: Morphological examination of treated FL cells. The conditions noted are these: FL cells DOHH2, K422, RL-7. It is filed as cell-based, human.
Assay [4] concerns K422 cells. The assay is described as follows: Caspase activity assay (AFC release from DEVD-AFC) in lysates of treated cells. It is filed as cell-based, human. The conditions noted are these: 100 nM. On the procedure: Caspase activities were assayed as previously described (Stennicke and Salvesen, 2000) at 37° C. in 40 μl of caspase buffer (50 mM HEPES pH 7.4, 100 mM NaCl, 10% sucrose, 1 mM EDTA, 0.1% CHAPS and 10 mM DTT) containing 100 μM of the fluorogenic peptide Ac-DEVD-AFC. Activity was measured continuously over the indicated time by the release of AFC from DEVD-AFC using a Molecular Devices fluorometer in the kinetic mode and with the 405-510 filter pair. For the assessment of caspase activity in intact cells after treatment with different apoptosis stimuli 10-20 μg of total cell protein (Triton X-100 extracts) was used in 40 μl of caspase buffer (containing 100 μM DEVD-AFC). For in-vitro initiation of caspase activity by cytochrome c Triton X-100 free, hypotonic cytosolic extracts were prepared and 10 μM horse heart cytochrome c (Sigma) together with 1 mM dATP or recombinant active caspase-8 (20 nM) were used for caspase activation (Deveraux et al., 1997). For reconstitution of RL-7 hypotonic cell extracts recombinant pro-caspase-3 was used as previously described (Stennicke et al., 1998).

In another assay the test system is NCI 60 tumor cell panel. The conditions noted are these: NCI database; cited from earlier work.
For assay [5], the system named is DR5 protein levels in DOHH2 cells. The conditions noted are these: 4.25 μM etoposide, Western blot. In general terms: In western blotting, separated proteins are transferred to a membrane and probed.
Protocol: Western blot analysis was used to evaluate protein expression. Cells (2.4×10^6 well) were seeded in 6 well plates and treated with the respective apoptosis stimuli. After the indicated time periods cells were washes in ice cold PBS and lysed in 1% Triton X-100 containing hypotonic lysis buffer (20 mM HEPES pH 7.5, 10 mM KCl, 1.5 mM MgCl2, 1 mM EDTA and 1 mM DTT). Protein (40 μg) was electorphoresed under reducing conditions on 10-20% gradient SDS-polyacrylamide gels. After electroblotting on nitrocellulose membranes (Schleicher and Schuell) the membranes were blocked for 1 h with 10% non-fat milk powder and immunoblotted for 1 h with the following primary antibodies: rabbit anti-DR5 polyclonal antibody (1:500, Cayman Chemicals), mouse anti-Fas monoclonal antibody CH-11 (MBL), rabbit anti-caspase-3 polyclonal antibody (1:1000, Pharmingen), rabbit anti-caspase-8 polyclonal antibody (1:1000, Pharmingen), mouse anti-caspase-9 monoclonal antibody 5B4 (1:1000, MBL), mouse anti-bcl-2 monoclonal antibody (1:500, Pharmingen) or goat anti-actin polyclonal antibody (1:200, Santa Cruz Biotechnology). Membranes were washed five times with TBS/0.05% Tween, incubated with the respective peroxidase conjugated affinity purified secondary antibody (1:5000, Biorad) for 30 min, washed again five times and developed using enhanced chemiluminescence (ECL, Amersham).
The subject of another assay is RL-7 cells. The assay can be described thus: MTT cytotoxicity assay, RL-7 cells. It counts as cell-based, human. The conditions noted are these: etoposide 0.425 μM 4 hours then agonistic anti-DR5 antibodies 12 hours.
The subject of the next assay is DOHH2 cells. The assay can be described thus: MTT cytotoxicity assay, DOHH2 cells. It counts as cell-based, human. The conditions noted are these: etoposide 0.425 μM 4 hours then agonistic anti-DR5 antibodies 12 hours, compared to drug or antibody alone.

On to `C[C@H]1CCC/C=C/[C@@H]2C[C@H](O)C[C@H]2[C@H](O)/C=C/C(=O)O1` [Brefeldin A], for which, in the assay on K422 cells [1], the “processing of caspase-8” value is given as “remained unprocessed in all of the cell lines”; the “caspase processing of the caspases-2, -3, -7 and -9” value is “only in K422 but not DOHH2 or the caspase-3 deficient RL-7 cells”. Besides, the “difference in IC50 concentrations in K422 cells compared to the other cell lines tested” value in the assay with K422 cells [2] turned out to be 6 fold. Also, the “classical features of apoptosis (morphology)” value in the assay on K422 cells [3] is recorded as “only K422 exhibited the classical features of apoptosis”. Besides, the “caspase activation (enzymatic activity)” value with K422 cells [4] is on record as “induced caspase activation”. The “sensitivity of NCI 60 tumor cell panel” value in the assay with NCI 60 tumor cell panel is listed as “one of the most sensitive cell lines is NCI/ADR”.
As for `CO[C@@H]1[C@H]([N+](C)(C)C)CC2O[C@]1(C)n1c3ccccc3c3c4c(c5c6ccccc6n2c5c31)C(=O)NC4` [Staur-F3], in the assay with K422 cells [1], the “processing of caspase-8” value is given as “remained unprocessed in all of the cell lines”; the “caspase processing of the caspases-2, -3, -7 and -9” value is recorded as “only in K422 but not DOHH2 or the caspase-3 deficient RL-7 cells”. For the same compound, in the assay with K422 cells [2], the “difference in IC50 concentrations in K422 cells compared to the other cell lines tested” value is recorded as 25 fold. Moreover, in the assay with K422 cells [3], the “classical features of apoptosis (morphology)” value is “only K422 exhibited the classical features of apoptosis”. Further, the “caspase activation (enzymatic activity)” value with K422 cells [4] was “induced caspase activation”.
On to `COc1cccc2c1C(=O)c1c(O)c3c(c(O)c1C2=O)C[C@@](O)(C(=O)CO)C[C@@H]3O[C@H]1C[C@H](N)[C@H](O)[C@H](C)O1` [doxorubicin], for which the “DR5 protein levels following exposure” value in assay [5] was “significantly increased”.
In the case of `COc1cc([C@@H]2c3cc4c(cc3[C@@H](O[C@@H]3O[C@@H]5CO[C@@H](C)O[C@H]5[C@H](O)[C@H]3O)[C@H]3COC(=O)[C@H]23)OCO4)cc(OC)c1O` [etoposide], the “effect of etoposide pretreatment on apoptosis induced by anti-DR5 antibody” value with RL-7 cells was “negligible effect”; with K422 cells [2] (K422, etoposide 0.425 μM 4 hours then agonistic anti-DR5 antibodies 12 hours), “negligible effect”; with DOHH2 cells it was “significantly increased apoptosis”. Moreover, the “DR5 protein levels following exposure” value in assay [5] is recorded as “significantly increased”.
